Data on eleven molecules can be found in patent publication US5250542A, “Peripherally selective piperidine carboxylate opioid antagonists” (Eli Lilly and Company, priority 1992, dated 1993).

One test has as its target T1, mu receptor (Rattus norvegicus, UniProt P33535).
T1 construct: rat whole brain minus cerebellum for mu was homogenized; from tissue; host or cells: brain of male Sprague Dawley rats, whole brain minus cerebellum, homogenate fraction
The test is described as follows: opioid receptor binding assay, [3H] NAL (tritiated naloxone), mu receptor. Also on record: species or system rat (Male Sprague Dawley), brain minus cerebellum. Conditions: for inhibition at 0.01 µM / inhibition at 0.1 µM: 20 min; for inhibition at 0.01 µM: read-out: % displacement at 10 nM, 10 nM test compound. The method, then:
This assay was conducted by the following procedure.
Male Sprague Dawley rats for mu site experiments were sacrificed via decapitation and the brains were removed. The brain tissue, rat whole brain minus cerebellum for mu was homogenized in a Teflon and glass tissue homogenizer. A supernatant I, pellet IV, fraction was frozen in a nitrogen freezer at 1.33 g/ml concentration and stored for not longer than five weeks prior to use. Pellets were rehydrated with physiological buffer prior to use.
The reaction was initiated by the addition of the resuspended tissue which had been preincubated at 37° C. for 20 minutes. The reaction mixture was incubated in a 37° C. water bath for 20 minutes. The reaction was terminated by rapid filtration, (Brandel Cell Harvestor), through Whatman GF/B glass filters that had been presoaked in Krebs-Hepes buffer pH 7.4. The filters were then washed 2x with 5 ml of ice cold Krebs-Hepes buffer pH 7.4. Washed filters were placed in scintillation vials and 10 ml RedySolv, (Brandel), was added and samples counted in a Searle D-300 beta counter. Means and standard error statistics were calculated for triplicate experimental determinations in certain cases. The incubation time for the reaction mixture was 20 minutes at 37° C.
Ki values were calculated using a minitab statistical program according to the following formula: [formula] wherein IC50 is the concentration at which 50% of the ^3 H ligand is displaced by the test compounds and KD is the dissociation constant for the ^3 H ligand at the receptor site. KD can be determined as described by Bennett, "Methods in Binding Studies", Neurotransmitter Receptor Binding, Yamamura, et al., ed., p. 57-90, Raven Press, N.Y. (1978) incorporated herein by reference.
In the Table, column 1 sets forth the Example Number of the compound evaluated, column 2 the Ki value in nanomolar (nM) at the mu receptor and columns 3 and 4 the percent displacement by the test compound at the indicated concentration, i.e., 10 nm or 100 nm.

For the next test, the target named is T2, opioid receptor (Mus musculus, UniProt P42866).
T2 construct: Five CF-1 male mice (Charles River, Portage, Mich.); from tissue; host or cells: living CF-1 male mice (in vivo test; endogenous receptor)
Nature of the test: mouse writhing analgesis test: block of morphine-induced analgesia. The test is classed as in vivo, CF-1 male mice. More on the design: unit not given here. The following applies: dose of antagonist that reduced the inhibition of writhing produced by 1.25 mg/kg morphine sulfate to 50%; subcutaneous, 20 min before acetic acid. The method, then: In order to determine in vivo opioid receptor antagonism, the mouse writhing analgesis test was used. Test compounds were measured for their ability to block morphine-induced analgesia.
Five CF-1 male mice (Charles River, Portage, Mich.), weighing approximately 20 g after being fasted overnight, were observed simultaneously for the writhing response. The writhing response was defined as a contraction of the abdominal musculature, followed by the extension of the hind limbs, and was induced by the intraperitoneal adminstration of 0.6% acetic acid in a volumne of 1 ml/100 g body weight. The observation period was 10 min. in duration, beginning 5 min. after injection of acetic acid. The percent inhibition of writhing was calculated from the average number of writhes in the control (non-drug) group. Each data point is the mean (±standarderror) for five mice. The ED50 was defined as the dose of agonist that inhibited mean writhing by 50%. […] Each mouse was only used once. All drugs were administered subcutaneously (1 ml/100 g bwt) 20 min. before the injection of acetic acid.

The target in test [1] is T3, peripheral opioid receptors (Mus musculus, UniProt P42866).
T3 construct: Mice maintained (6 mice/cage) on 0.01M saccharin water with 1 g/1 morphine sulfate; from tissue; host or cells: living morphine-maintained mice (in vivo test; endogenous receptor)
Nature of the test: precipitated diarrhea in morphine-maintained mice (peripheral opioid activity) and comparison with the writhing test. The test is classed as in vivo. Conditions: for Ratio (AD50 mouse writhing test / ED50 mouse diarrhea test): higher ratio = greater relative antagonism of peripheral opioid receptors; for ED50: mouse, 0.5 h, morphine-maintained mice, antagonist subcutaneous or oral, 30 min observation. On the procedure: Determinations of peripheral opioid activity were conducted. Mice maintained (6 mice/cage) on 0.01M saccharin water with 1 g/1 morphine sulfate for a minimum of 10 days with mice averaging 3.0^+ g water/mouse/day for at least three days are used as subjects. The morphine water was removed 45 min. prior to injection with the proposed opioid antagonist. Initial testing consisted of 5 mice/dose of compound. The antagonist was given by the subcutaneous or oral, route of administration,and the mice were placed in 11-14"×4 7/12 I.D. clear plastic cylinders with white paper towels used for a floor.
The mice were then monitored visually for 30 minutes post-injection for the presence of jumping and of diarrhea. Jumping was scored as positive if at least one jump occurred in 30 min. Diarrhea was scored as positive when feces were moist enough to stain the white paper at the base of the cylinder. After 30 minutes of testing, the mice were placed back in original cages, put back on morphine water, and not tested again for 48 hrs. Lower doses of the antagonist compounds were tested until threshold doses for diarrhea were determined. Diarrhea is a peripherally mediated sign of precipitated opiate abstinence.
The extent of the effect on peripheral activity compared to central activity of the present compounds can-be determined by comparing the AD50 for the mouse writhing test with the ED50 for the mouse diarrhea test. The higher the ratio, the greater the relative antagonism of the peripheral opioid receptors by a particular compound.

[2] abbreviates: read-out: % displacement at 100 nM, 100 nM test compound, [3H] naloxone 0.5 nM.

SMILES strings stand for the structures. Where a name gives a salt, the structure may show the parent alone. Read-outs that look alike come from different tables or passages of the source.

T2 sequence (P42866 whole entry): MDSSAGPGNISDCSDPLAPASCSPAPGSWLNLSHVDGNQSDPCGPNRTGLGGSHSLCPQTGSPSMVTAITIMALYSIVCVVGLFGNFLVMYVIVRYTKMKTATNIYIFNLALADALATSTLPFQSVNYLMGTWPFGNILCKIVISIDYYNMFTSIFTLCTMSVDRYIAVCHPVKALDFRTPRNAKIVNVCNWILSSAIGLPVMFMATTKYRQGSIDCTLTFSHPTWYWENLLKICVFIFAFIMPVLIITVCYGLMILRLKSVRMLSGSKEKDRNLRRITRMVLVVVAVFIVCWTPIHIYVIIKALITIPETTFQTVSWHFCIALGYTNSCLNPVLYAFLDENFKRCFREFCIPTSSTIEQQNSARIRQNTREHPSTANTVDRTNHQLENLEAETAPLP
T3 sequence (P42866 whole entry): as above
T1 sequence (P33535 whole entry): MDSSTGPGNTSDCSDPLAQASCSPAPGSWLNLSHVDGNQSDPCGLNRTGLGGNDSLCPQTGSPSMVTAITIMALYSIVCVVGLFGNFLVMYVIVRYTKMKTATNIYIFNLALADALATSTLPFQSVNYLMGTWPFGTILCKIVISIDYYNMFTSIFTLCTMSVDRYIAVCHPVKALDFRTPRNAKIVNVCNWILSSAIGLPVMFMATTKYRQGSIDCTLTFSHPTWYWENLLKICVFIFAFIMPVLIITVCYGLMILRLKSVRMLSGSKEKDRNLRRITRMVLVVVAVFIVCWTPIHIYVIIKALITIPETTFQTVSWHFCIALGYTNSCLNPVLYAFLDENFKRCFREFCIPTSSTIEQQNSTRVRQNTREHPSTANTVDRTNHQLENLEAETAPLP

`C[C@H]1CN(CCC(C(=O)O)C2CCCCC2)CC[C@@]1(C)c1cccc(O)c1` (relative stereo) [Example 9B, hydrochloride] yielded a Ki at mu receptor of 0.66 nM. The inhibition at 0.01 µM at mu receptor ([3H] naloxone 0.5 nM) came to 90%. In addition, on mu receptor (setting [2]), the inhibition at 0.1 µM was 93%. On opioid receptor, this molecule displayed an AD50 of 1.50. In test [1], the “Ratio (AD50 mouse writhing test / ED50 mouse diarrhea test)” value amounted to 75 and the ED50 was 0.02 mg/kg.

At mu receptor, `C[C@H]1CN(CCC(C(=O)N(C)C)c2ccccc2)CC[C@@]1(C)c1cccc(O)c1` (relative stereo) [Example 10, trans-4-[(3-hydroxyphenyl)-3,4-dimethyl-1-piperidinyl]-2-phenyl-N,N-dimethylbutanamide hydrochloride] yielded a Ki of 1.17 nM. At mu receptor ([3H] naloxone 0.5 nM), the inhibition at 0.01 µM was determined as 89%. For the same molecule, the inhibition at 0.1 µM on mu receptor (setting [2]) stood at 100%. Moreover, the AD50 at opioid receptor was 0.54. Moreover, in test [1], the “Ratio (AD50 mouse writhing test / ED50 mouse diarrhea test)” value worked out at 9 and the ED50 was determined as 0.06 mg/kg.

For the molecule `CCOC(=O)CNC(=O)C(CCN1CC[C@@](C)(c2cccc(O)c2)[C@@H](C)C1)c1ccccc1` (relative stereo) [Example 11, 2-[[4-4-(3-hydroxyphenyl)-3,4-dimethyl-1-piperidinyl]-1-oxo-2-phenylbutyl]amino]-acetic acid ethyl ester monohydrochloride], at mu receptor, the affinity, expressed as Ki, was 0.3 nM. In addition, the inhibition at 0.01 µM at mu receptor ([3H] naloxone 0.5 nM) was found to be 81%. At mu receptor (setting [2]), the inhibition at 0.1 µM worked out at 89%. In addition, the AD50 on opioid receptor was found to be 2.4. For the same molecule, in test [1], the “Ratio (AD50 mouse writhing test / ED50 mouse diarrhea test)” value worked out at 141 and the ED50 came out at 0.017 mg/kg.

Turning to `C[C@H]1CN(CCC(C(=O)NCC(=O)O)c2ccccc2)CC[C@@]1(C)c1cccc(O)c1` (relative stereo) [Example 12, 2-[[4-[4-(3-hydroxyphenyl)-3,4-dimethyl-1-piperidinyl]-2-phenyl-1-oxobutyl]amino]ethanoic acid monohydrate], the Ki on mu receptor amounted to 1.89 nM. Besides, the inhibition at 0.01 µM at mu receptor ([3H] naloxone 0.5 nM) came out at 84%. Moreover, the inhibition at 0.1 µM at mu receptor (read-out: % displacement at 100 nM) came to 94%. This molecule yielded an AD50 at opioid receptor of 40. In addition, in test [1], the “Ratio (AD50 mouse writhing test / ED50 mouse diarrhea test)” value turned out to be 2667 and the ED50 is 0.015 mg/kg.

As for `CCNC(=O)CNC(=O)C(CCN1CC[C@@](C)(c2cccc(O)c2)[C@@H](C)C1)c1ccccc1` (relative stereo) [Example 15, N-ethyl-2-[[4-[4-(3-hydroxyphenyl)-3,4-dimethyl-1-piperidinyl]]-2-phenyl-1-oxobutylamino]-acetamide monohydrochloride monohydrate], the affinity on mu receptor, expressed as Ki, was 1.07 nM. On mu receptor ([3H] naloxone 0.5 nM), the inhibition at 0.01 µM is 99%. For the same molecule, on mu receptor (setting [2]), the inhibition at 0.1 µM worked out at 100%. The AD50 on opioid receptor was > 40. In test [1], the “Ratio (AD50 mouse writhing test / ED50 mouse diarrhea test)” value is listed as > 133 and it took a dose of 0.3 mg/kg to reach the 50% effect level (ED50).

`C[C@H]1CN(CCC(C(=O)NCCC(N)=O)C2CCCCC2)CC[C@@]1(C)c1cccc(O)c1` (relative stereo) [Example 17, monohydrochloride] registered a Ki at mu receptor of 0.43 nM. Moreover, at mu receptor ([3H] naloxone 0.5 nM), the inhibition at 0.01 µM worked out at 97%. The inhibition at 0.1 µM on mu receptor (setting [2]) was 100%. Also, at opioid receptor, the AD50 is recorded as > 40. Moreover, in test [1], the “Ratio (AD50 mouse writhing test / ED50 mouse diarrhea test)” value is listed as > 667 and the ED50 is 0.06 mg/kg.

At mu receptor, `CNC(=O)CCNC(=O)C(CCN1CC[C@@](C)(c2cccc(O)c2)[C@@H](C)C1)C1CCCCC1` (relative stereo) [Example 18, N-[3-(methylamino)-3-oxopropyl]-4-[4-(3-hydroxyphenyl)-3,4-dimethyl-1-piperidinyl]-2-cyclohexyl-butanamide monohydrochloride] displayed a Ki of 0.43 nM. Moreover, the inhibition at 0.01 µM at mu receptor ([3H] naloxone 0.5 nM) is 97%. Besides, the AD50 on opioid receptor is given as > 40. Moreover, in test [1], the “Ratio (AD50 mouse writhing test / ED50 mouse diarrhea test)” value is reported as > 888 and the ED50 stood at 0.045 mg/kg.

For the molecule `C[C@H]1CN(CCC(C(=O)NCC(N)=O)C2CCCCC2)CC[C@@]1(C)c1cccc(O)c1` (relative stereo) [Example 20, N-(2-amino-2-oxoethyl)-4-[4-(3hydroxyphenyl)-3,4-dimethyl-1-piperidinyl]-2-cyclohexylbutanamide hydrochloride monohydrate], at mu receptor, affinity was put at a Ki of 0.78 nM. In addition, the inhibition at 0.01 µM at mu receptor ([3H] naloxone 0.5 nM) was 98%. For the same molecule, at mu receptor (setting [2]), the inhibition at 0.1 µM came out at 100%. Further, at opioid receptor, the AD50 was found to be 32.1. In test [1], the “Ratio (AD50 mouse writhing test / ED50 mouse diarrhea test)” value is given as 802 and the 50% effect level (ED50) was put at a dose of 0.004 mg/kg.

For the molecule `CNC(=O)CNC(=O)C(CCN1CC[C@@](C)(c2cccc(O)c2)[C@@H](C)C1)C1CCCCC1` (relative stereo) [Example 21, N-[2-(methylamino)-2-oxoethyl]-4-[4-(3-hydroxyphenyl)-3,4-dimethyl-1-piperidinyl]-2-cyclohexyl butanamide hydrochloride], the affinity at mu receptor, expressed as Ki, was 0.45 nM. The inhibition at 0.01 µM at mu receptor ([3H] naloxone 0.5 nM) came to 96%. Moreover, the inhibition at 0.1 µM at mu receptor (setting [2]) is 100%. Besides, the AD50 on opioid receptor was > 20. Moreover, in test [1], the “Ratio (AD50 mouse writhing test / ED50 mouse diarrhea test)” value was > 125 and the 50% effect level (ED50) was put at a dose of 0.16 mg/kg.

As to `CCNC(=O)CNC(=O)C(CCN1CC[C@@](C)(c2cccc(O)c2)[C@@H](C)C1)C1CCCCC1` (relative stereo) [Example 22, N-[2-(ethylamino)-2-oxoethyl]-4-[4-(3-hydroxyphenyl)-3,4-dimethyl-1-piperidinyl]-2-cyclohexyl butanamide hydrochloride], on mu receptor, the Ki is 0.33 nM. In addition, the inhibition at 0.01 µM at mu receptor ([3H] naloxone 0.5 nM) came to 100%. In addition, the inhibition at 0.1 µM at mu receptor (setting [2]) is 96%. On opioid receptor, the AD50 is given as > 40. Besides, in test [1], the “Ratio (AD50 mouse writhing test / ED50 mouse diarrhea test)” value was > 500 and the ED50 turned out to be 0.08 mg/kg.

Take `CCOC(=O)CCCNC(=O)C(CCN1CC[C@@](C)(c2cccc(O)c2)[C@@H](C)C1)C1CCCCC1` (relative stereo) [Example 23, 4-[2-cyclohexyl-4-[4-(3-hydroxyphenyl)-3,4-dimethyl-1-piperidinyl]-1-oxobutyl]amino]-butanoic acid ethyl ester monohydrochloride monohydrate]: the Ki at mu receptor was 1.65 nM. The inhibition at 0.01 µM on mu receptor ([3H] naloxone 0.5 nM) worked out at 100%. The inhibition at 0.1 µM on mu receptor (setting [2]) turned out to be 96%. Moreover, the AD50 at opioid receptor is reported as > 20. Moreover, in test [1], the “Ratio (AD50 mouse writhing test / ED50 mouse diarrhea test)” value is > 140 and the ED50 worked out at 0.14 mg/kg.
